Measured values: article PMC3518590 (Journal of inorganic biochemistry, 2012)
“Also recorded” adds a separate entry of the source. Like-named read-outs stand apart in the source and are kept apart here.

What was measured:
[1] = test system: Yeast ALDH (E.C. 1.2.1.5); conditions: read-out: ALDH inhibition, reported IC50; ref [24], [25]; cited from earlier work
[2] = molecular target: ALDH peptide A286-R307 (AIDWIAAGIFYLNSGQNCTANSR) (Saccharomyces cerevisiae, UniProt P47771); assay: LC-MS reactivity with ALDH peptide A286-R307
[3] = test system: Yeast ALDH (E.C. 1.2.1.5); assay: In vitro reactivation of inhibited yeast ALDH by DTT; type: biochemical; conditions: inhibitor at ten-times IC50, DTT 10 mM
[4] = test system: Yeast ALDH (E.C. 1.2.1.5); assay: In vitro inhibition of yeast ALDH; type: biochemical; conditions: for time to complete inhibition of ALDH: inhibitor at ten-fold the IC50; for IC50: read-out: ALDH inhibition IC50, 37 °C preincubation
[5] = UV-Vis spectroscopy assay for decomposition in buffer; conditions: no PLE
[6] = buffer, pH 7.4
oxymyoglobin (MbO2) = oxymyoglobin (MbO2) (Equus caballus, UniProt P68082); assay: UV-vis assay of metMb formation from MbO2; type: biochemical
[7] = Water solubility in buffer; type: physicochemical
[8] = buffer; cited from earlier work
[9] = 10 eq. reagent, peptide 10 μM, no PLE, room temperature

Sequence of UniProt P47771 (P47771 286-307): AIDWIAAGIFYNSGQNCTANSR
Sequence of oxymyoglobin (MbO2) (P68082 whole entry): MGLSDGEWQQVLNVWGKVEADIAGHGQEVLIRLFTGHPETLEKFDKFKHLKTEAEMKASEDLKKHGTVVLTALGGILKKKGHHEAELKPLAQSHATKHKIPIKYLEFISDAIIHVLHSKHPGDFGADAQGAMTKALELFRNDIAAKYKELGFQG

Compound | IC50 [1] [µM] | Product(s) of reaction with ALDH peptide [2, 9] | ALDH enzyme activity restored by DTT ([3]; no PLE) [%] | time to complete inhibition of ALDH [4] [min] | IC50 ([4]; absence of PLE) [µM] | decomposition t1/2 (comparison value) [8] [h] | other results
O=Nc1ccccc1 [NB, Nitrosobenzene] | 2.5 | N-phenyl sulfinamide | 15 | ≤ 10 | 0.2 |  | 
4-Nitrosotetrahydro-2H-pyran-4-yl Pivalate [compound 5] |  | RSSR | 63 |  | 3.3 |  | decomposition rate constant k ([5]; 3 % mixture of DMF:PBS (100 mM, pH 7.4), 37 °C): 6e-06 s⁻¹; decomposition t1/2 [6]: 32 h; Product(s) of reaction with ALDH peptide ([2]; 10 eq. reagent + PLE (9 U/μmol), room temperature): RSSR and sulfinamide; ALDH enzyme activity restored by DTT ([3]; in the presence of PLE): 43%; rate constant of MbO2 conversion to metMb (oxymyoglobin (MbO2); MbO2 42 μM, compound 84 μM, PLE 9 U/μmol, PBS pH 7.4, 37 °C): 0.0003 s⁻¹; reaction with MbO2 (absorption spectra) (oxymyoglobin (MbO2); absence of PLE): no change in the absorption spectra; IC50 ([4]; presence of PLE (9 U/μmol)): 3.5 µM
CC(=O)OC1(N=O)CCOCC1 [compound 4, 4-Nitrosotetrahydro-2H-pyran-4-yl Acetate] |  |  |  |  |  |  | decomposition rate constant k ([5]; buffered conditions, PBS 100 mM pH 7.4, 37 °C): 3e-05 s⁻¹; solubility [7]: 1700 µM
CC(=O)OC1(N=O)CCCCC1 [compound 1] |  |  |  |  |  | 14.8 | 
[Na+].[Na+].[O-][N+]([O-])=NO [AS, Angeli’s salt (NaN2O3, AS)] | 1.8 | sulfinamide-minor; also recorded: dhA -major | 46 | ≤ 10 | 2.1 |  | Product(s) of reaction with ALDH peptide ([2]; 1000 eq. reagent): sulfinamide
CC(C)(C)C(=O)OC1(N=O)CCCCC1 [compound 2] |  |  |  |  |  | 37.8 | 
